Measured values as given in patent publication US12151010B2, “Skin lightening agent” (POLA CHEMICAL INDUSTRIES, INC., priority 2018, dated 2024).

Tested on: pigmentation of UV-irradiated test sites on the medial upper arms of panelists
Assay: Test of skin whitening effect (pigmentation ameliorating effect), skin lightness L* by color difference meter after UV irradiation
Format: in vivo, human (panelists)
Settings: for Pigmentation amelioration Rating: 25-day application; for Pigmentation amelioration ΔL*: 50 μL twice a day for 25 days after 3x 1 MED UV, L* minus Comparative Example site
Procedure: The cosmetics according to Table 1 (Examples 1 to 9, Comparative Example, and Reference Example) were prepared respectively in a conventional manner. With regard to each of the prepared cosmetics, the skin whitening effect (pigmentation ameliorating effect) was evaluated by the following method. That is, total 8 test sites in a size of 0.5 cm×0.5 cm were established on the medial parts of the left and right upper arms of each of 10 panelists who participated voluntarily. Each established site was irradiated with a minimum erythema dose (1 MED) of UV light once a day for three consecutive days, namely totally three times. At the end of the UV irradiation on the first day of the test (at the end of the first irradiation) and thereafter each 50 μL of the cosmetics of Comparative Example and any one of Examples 1 to 9 or Reference Example were applied respectively to one site and the remaining seven sites twice a day for 25 consecutive days. The skin lightness (L* value) of each test site was measured 24 hours after the end of the 25-day application period with a color difference meter (CR-300, Konica Minolta Holdings, Inc.). By subtracting the L* value of the site to which the cosmetic of Comparative Example was applied from each L* value of the sites to which the cosmetic of Example or Reference Example was applied, the difference in skin lightness (ΔL* value) was calculated. Since the L* value decreases, as the degree of pigmentation becomes severer, it may be so judged that pigmentation is ameliorated, when the ΔL* value is higher.

[1] = content 0.01% by mass in Table 1 cosmetic
[2] = content 1% by mass in Table 1 cosmetic
[3] = content 3% by mass in Table 1 cosmetic

SMILES	Pigmentation amelioration Rating [1]	Pigmentation amelioration ΔL* [1]	Pigmentation amelioration Rating [2]	Pigmentation amelioration ΔL* [2]	Pigmentation amelioration Rating [3]	Pigmentation amelioration ΔL* [3]
NCC1CCC(C(=O)c2ccc(CCC(=O)O)cc2)CC1 (centres unmarked) [Compound 1, 3-[p-(4-aminomethylcyclohexylcarbonyl)phenyl]propionic acid]	A (0.4 < ΔL* < 0.5)	0.47	AA (ΔL* ≥ 0.5%)	0.50	AA (ΔL* ≥ 0.5%)	0.52
CCCCCCOC(=O)CCc1ccc(C(=O)C2CCC(CN)CC2)cc1 (centres unmarked) [Compound 2, 3-[p-(4-aminomethylcyclohexylcarbonyl)phenyl]propionate hexyl]	–	–	A (0.4 < ΔL* < 0.5)	0.43	–	–
NCC1CCC(C(=O)c2ccc(CCCO)cc2)CC1 (centres unmarked) [Compound 3, 3-[p-(4-aminomethylcyclohexylcarbonyl)phenyl]propanol]	A (0.4 < ΔL* < 0.5)	0.45	A (0.4 < ΔL* < 0.5)	0.48	–	–
CCCCCC(=O)OCCCc1ccc(C(=O)C2CCC(CN)CC2)cc1 (centres unmarked) [Compound 4, 3-[p-(4-aminomethylcyclohexylcarbonyl)phenyl]propyl hexanoate]	–	–	A (0.4 < ΔL* < 0.5)	0.45	–	–
CCCCCC(=O)OCC(C)Cc1ccc(C(=O)C2CCC(CN)CC2)cc1 (centres unmarked) [Compound 5, 2-methyl-3-[p-(4-aminomethylcyclohexylcarbonyl)phenyl]propyl hexanoate]	–	–	A (0.4 < ΔL* < 0.5)	0.42	–	–
Cl.NCC1CCC(C(=O)c2ccc(CCC(=O)O)cc2)CC1 (centres unmarked) [Hydrochloride of Compound 1]	–	–	AA (ΔL* ≥ 0.5%)	0.52	–	–
NC[C@H]1CC[C@H](C(=O)O)CC1 [Tranexamic acid, reference compound]	–	–	B (ΔL* ≤ 0.4)	0.40	–	–
